Assay results taken from patent publication US10138282B2, “Peptide antagonist of LL-37” (INDIANA UNIVERSITY RESEARCH AND TECHNOLOGY CORPORATION, priority 2014, dated 2018).

Tests used:
Format in all cases: cell-based, human
TLR3 signaling = assay: IL-6 production (ELISA) in BEAS-2B cells induced with poly(I:C); details: BEAS-2B cells
Reovirus dsRNA, Reo S4 = assay: IL-6 production in BEAS-2B cells in the presence of Reovirus dsRNA Reo S4
Method: IL-6 production was quantified by ELISA using the OptEIA™ kit (BD Biosciences). A typical assay used 2×10^4 BEAS-2B cells/well grown for 24 h in flat bottom 96-well plates. Poly(I:C) was added to a final concentration of 0.13 μg/ml. Antimicrobial peptides were added to the cell culture medium to a final concentration of 3 μM unless specified otherwise. All ELISA results shown were performed in triplicate and in at least three independent experiments.
Herein, we analyzed the LL-37 orthologs from Rhesus monkeys, pig, sheep, guinea pigs, rabbit, as well as mouse (FIG. 14A). All peptides were chemically synthesized and assayed for the induction of inflammatory cytokine IL-6 in the presence of the double-stranded RNA mimic, poly(I:C) or the Reovirus dsRNA, Reo S4 (FIGS. 14B and 14C). […] Importantly, all LL-37 orthologs tested had the ability to reduce IL-6 production in response to LPS (FIG. 14E).

Toll-like receptor 9 = assay: IL-6 production in BEAS-2B cells in the presence of ssDNA ligand ODN

PAMP-37: LL-37 ortholog from pig, SEQ ID NO: 22 (GLLSRLRDFLSDRGRRLGEKIERIGQKIKDLSEFFQS; (1)..(37) Pig PMAP-37; listed as Sus scrofa)
Enhancement of TLR3 signaling / poly(I:C)-induced IL-6, in words (TLR3 signaling): failed to enhance signaling
Enhancement of IL-6 production / signaling by Reo S4, in words (Reovirus dsRNA, Reo S4): failed to enhance signaling
Induction of signaling by the ssDNA ligand for Toll-like receptor 9, in words (Toll-like receptor 9): failed to induce signaling
